≈ marks a conversion by molar mass, not a printed value.
Legend:
closed eyelids [1] = assay: Eye wipe test: cooling sensations after wiping test solution over closed eyelids; format: in vivo, human; settings: for quality of cooling sensation: CPS-369 1 and 2 mg/mL, CPS-160 2 mg/mL, CPS-030 1, 2, 4, 8 mg/mL; for cooling potency relative to CPS-030: in vivo
Procedure: The general procedure for testing was to weigh an active ingredient and to disperse it within a saline solution (i.e., Bausch & Lomb, Sensitive Eyes Plus Saline Solution) at stock concentrations of 10 to 20 mg/mL. Test solutions were further diluted with isotonic saline. For single assays, a 1 mL scaled pipette was used to dispense 0.8 to 1 mL of test solution onto a sterile 2″×2″ (5 cm×5 cm) pad, made of rayon-polyester formed fabric (Walgreens Sterile Gauze Pads) weighing on average 285±9 mg.
In the next trials, the wet pad was wiped twice over the closed eyelids of each eye from the medial to the lateral canthus. By subtraction, the loss of weight of the pad averaged 32±1 mg. Thus, each eye received ˜16 μL of the test solution per eye. For a 1 mg/mL solution this was equivalent to ˜16 μg per eye.
The presence of cooling sensations was recorded at 2 and 5 minutes after wiping and at 5 minute intervals thereafter. The intensity of the subjective eye sensation was rated as 0, 1, 2 or 3 with: 0 as no change; 1 as slight coolness or cold; 2 as clear-cut signal of coolness or cold; and 3 as comfortable and soothing sensations of cooling or cold. Recording was continued until two successive zeroes were obtained. The data were plotted using SigmaPlot™ (Systat Software, Point Richmond Calif.).
The results for compound CPS-030 are illustrated in FIG. 1, and reflect the averaged values of 6 to 8 separate trials in the same individual.
FIG. 1 is a graph of cooling intensity versus hours after application of CPS-030 with eye wipes for four dosages (128 μg, 64 μg, 32 μg, and 16 μg; per eye), and illustrates the dose-response data for CPS-030 on cooling sensations after application with eye wipes. The dose reported in μg is per eye, based on solutions of 1.0, 2.0, 4.0 and 8.0 mg of CPS-030 per mL of saline, applied in a volume of 16 μL per eye. […] Confirmatory trials of cooling action for CPS-030 were obtained in 4 individuals.

closed eyelids [2] = assay: Case reports: eye wipe in subjects with eye strain or dry eyes syndrome; format: in vivo, human; settings: person
Procedure: A person routinely spent about 12 hour each day in front of a computer monitor and developed headaches and blurred vision. A visit to a general physician gave a diagnosis of eye strain, but the addiction to the computer monitor continued. The subject found some relief by putting a cold wet towel on their face, but the relief was only temporary. They volunteered to test an eye wipe containing 0.8 mL of a 4 mg/mL solution of CPS-030 and was given instructions on how to wipe the solution onto the eyelids with the eyes closed. […] During this time, the subject watched a basketball playoff game on television and noted that they could clearly distinguish scores on the 46 inch (117 cm) HDTV monitor which were previously indecipherable. For example, they could clearly see scores of 65 vs. 66, and of 98 vs. 99. […] The subject continues to use the eye wipes as an aid to their vision on an “as needed basis”, and the improved visual acuity is a reproducible event.
Their principal complaints were of dryness, itch, and discomfort at the corner of their eyes and blurred vision. These symptoms were present on a daily basis at various levels of intensity. […] It was not clear if they adhered to a strict regimen of self-administration, but they complained of the eye drops running down their cheeks and the expense of the medications. When the symptoms were severe, the subject found some relief by wetting their eyes with cold tap water, but the relief was only temporary. They volunteered to test an eye wipe containing 0.8 mL of a 4 mg/mL solution of CPS-030, and was given instructions on how to apply the solution onto the eyelids with the eyes shut.

[3] = Stability of test solutions stored at room temperature (retention of cooling activity); format: physicochemical; settings: saline solution
From the text: (§1) 2-[((1R,2S,5R)-2-isopropyl-5-methyl-cyclohexanecarbonyl)-amino]-acetic acid 3-hydroxypropyl ester, referred to as CPS-160 (see, e.g., Wei, 2008) was synthesized and tested. […] Thus, CPS-160 was not considered to be an optimal cooling agent for practicing the invention.
(§2) It has a good safety profile because the expected hydrolysis products are the carboxylic acid and glycerol.

[4] = Observed solubility in vehicle; format: physicochemical; settings: for solubility in 1 or 2% ethanol-water solution: higher concentrations not achievable without more ethanol
From the text: Wei, 2008 describes delivery of cooling compounds to the skin using a towelette. The wiping of the towelette across skin results in delivery of dermatologically active ingredient(s), meaning that the skin is substantially medicated. […] An ethanol/water mixture with an ethanol concentration of about 5 wt % is required in order to dissolve enough of these compounds to provide a sufficient degree of cooling to relieve eye discomfort; however, at this concentration the ethanol is irritating to the eye surface.
as §1, §2
Thus, water solubility, as embodied in CPS-030, is a key factor for an ideal API.

closed eyelids [5] = assay: Eye wipe test: cooling sensations after wiping test solution over closed eyelids; format: in vivo, human; settings: for sensations accompanying cooling: 1 mg/mL in 1 or 2% ethanol-water, closed eyelids
[6] = dry eyes syndrome, eye wipe 0.8 mL of 4 mg/mL
[7] = eye strain, eye wipe 0.8 mL of 4 mg/mL

CC(C)[C@@H]1CC[C@@H](C)C[C@H]1C(=O)OCC(O)CO (stereo partly drawn) [Compound 1, (1R,2S,5R)-2-isopropyl-5-methyl-cyclohexanecarboxylic acid 2,3-dihydroxy-propyl ester]
sensations accompanying cooling (closed eyelids [1]; 32 μg, 64 μg and 128 μg per eye, saline, eye wipe): cooling was accompanied by a sensation of “wetness” and increased visual acuity | duration of eye refreshment (closed eyelids [1]; 4.0 mg/mL in saline, 16 μL per eye, sterile pad): approximately 1 hour | sensations of sting, irritation or pain (closed eyelids [1]; all dosages tested (16-128 μg per eye)): no sensations of sting, irritation, or pain | effective dose via eye wipe (closed eyelids [1]; delivered via a 2.0 mg/mL solution in an eye wipe): ~32 μg/eye | quality of cooling sensation (closed eyelids [1]; saline, eye wipe): Robust and refreshing cooling | symptomatic relief on as-needed use (closed eyelids [2]; dry eyes syndrome, as needed for three months): expressed satisfaction at the relief of eye discomfort | duration of cooling and soothing sensations (closed eyelids [2]; [6]): at least 1 hour | onset of cooling and soothing sensations (closed eyelids [2]; [6]): Within two minutes | sensations reported (closed eyelids [2]; [6]): sensation of “wetness”, and a feeling of soothing and comfort | duration of cooling and soothing sensations (closed eyelids [2]; [7]): at least two hours | effect on visual acuity (closed eyelids [2]; [7]): increase in visual acuity | onset of cooling and soothing sensations (closed eyelids [2]; [7]): Within two minutes | stability of solution stored at room temperature [3]: retained biological potency when stored at room temperature for at least three weeks | solubility in saline solution [4]: miscible and solubilized in saline solution

CC(C)[C@@H]1CC[C@@H](C)C[C@H]1C(=O)OCCOCCO [Compound 2]
duration of cooling (closed eyelids [1]; 10 mg/mL, eye wipe): less than 30 minutes | cooling intensity (closed eyelids [1]; 10 mg/mL, eye wipe, scale 0-3): < 2 coolness units

CCOC(=O)[C@@H](C)NC(=O)[C@@H]1C[C@H](C)CC[C@H]1C(C)C [Compound 12, (R)-2-[((1R,2S,5R)-2-isopropyl-5-methyl-cyclohexanecarbonyl)-amino]-propionic acid ethyl ester]
duration of cooling (closed eyelids [1]; 1 mg/mL dispersed in saline, eye wipe): approximately 1.5 hours | duration of cooling (closed eyelids [1]; 2 mg/mL in saline, eye wipe): ~2.5 h | quality of cooling sensation (closed eyelids [1]; saline, eye wipe): Robust and refreshing cooling | side-effect when eyelids get wet after testing (closed eyelids [1]; solid dispersed in saline, 1 and 2 mg/mL): the cooling sensations returned, sometimes with an intensity that could cause discomfort | cooling sensation (closed eyelids [5]; 30 mg in 0.1 mL ethanol + 7.4 mL glycerol + 7.5 mL water): Mild and persistent cooling

CC(C)[C@@H]1CC[C@@H](C)C[C@H]1C(=O)OCCO [Compound 3]
adverse sensations (closed eyelids [1]; higher two doses of 32 to 160 μg/eye range): brief period of warmth sensations on the eye surface and increased lachrymation | cooling potency relative to CPS-030 (closed eyelids [1]): about half the potency of CPS-030

COC(=O)[C@@H](C)NC(=O)[C@@H]1C[C@H](C)CC[C@H]1C(C)C [Compound 9]
cooling potency relative to CPS-030 (closed eyelids [1]): more potent cooling activity than CPS-030 | solubility in 1 or 2% ethanol-water solution [4]: 1000 µg/mL (≈ 3.71 mM) | sensations accompanying cooling (closed eyelids [5]): without any sensations of wetness or increased visual acuity

COC(=O)CNC(=O)[C@@H]1C[C@H](C)CC[C@H]1C(C)C [Compound 10, reference compound]
cooling potency relative to CPS-030 (closed eyelids [1]): more potent cooling activity than CPS-030 | solubility in 1 or 2% ethanol-water solution [4]: 1000 µg/mL (≈ 3.92 mM) | sensations accompanying cooling (closed eyelids [5]): without any sensations of wetness or increased visual acuity

CC(C)[C@@H]1CC[C@@H](C)C[C@H]1C(=O)NCC(=O)OCCCO [CPS-160, 2-[((1R,2S,5R)-2-isopropyl-5-methyl-cyclohexanecarbonyl)-amino]-acetic acid 3-hydroxypropyl ester]
duration of cooling (closed eyelids [1]; 2 mg/mL in saline, eye wipe): approximately 0.6 hours | quality of cooling sensation (closed eyelids [1]; saline, eye wipe): Robust and refreshing cooling | stability of solution stored at room temperature [3]: not stable and became inactive after 2 days | solubility in saline solution [4]: solubilized in saline solution

— patent US20120128754A1, “TREATMENT OF EYE DISCOMFORT BY TOPICAL ADMINISTRATION OF A COOLING AGENT TO THE EXTERNAL SURFACE OF THE EYELID” (priority 2009, published 2012)
